# Target: Indoleamine 2,3-dioxygenase 1 (Homo sapiens, UniProt P14902)
# Assay: Enzymatic Assay
# Method: Recombinant human IDO1 (rhIDO1) was expressed and purified from cultures of EC538 strain of E. coli transformed with pREP4 and pQE9-IDO plasmid. Reaction mixes were set up in 384-well microplates containing 50 mM phosphate buffer, 10 mM ascorbic, 10 μM methylene blue, 100 μg/mL catalase, 80 μM TRP, 0.01% Tween 20 (v/v) mixed with rhIDO1 (15 μL) at a final concentration of 9 nM in a total volume of 30 μL assay medium. The plates were incubated at 37° C. for 30 min, and the enzymatic reaction was terminated by adding piperidine (200 mM) and heated at 65° C. for 20 min. Fluorescence intensity was read at λex 400 nm and λem 500 nm. Test compounds were dissolved in 100% DMSO and pre-diluted in assay medium prior to adding rhIDO1.
# Indoleamine 2,3-dioxygenase 1, sequence (P14902 whole entry): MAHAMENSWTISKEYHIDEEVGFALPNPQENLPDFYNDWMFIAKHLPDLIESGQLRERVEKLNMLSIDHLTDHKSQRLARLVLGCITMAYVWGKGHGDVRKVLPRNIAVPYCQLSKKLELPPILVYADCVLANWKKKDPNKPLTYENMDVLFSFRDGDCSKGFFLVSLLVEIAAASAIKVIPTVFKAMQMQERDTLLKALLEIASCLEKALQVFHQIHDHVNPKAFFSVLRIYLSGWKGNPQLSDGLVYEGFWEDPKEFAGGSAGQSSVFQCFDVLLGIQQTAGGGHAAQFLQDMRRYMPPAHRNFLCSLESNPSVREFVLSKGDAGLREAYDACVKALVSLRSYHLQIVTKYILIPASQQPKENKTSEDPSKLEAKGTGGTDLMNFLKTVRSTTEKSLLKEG
structure (smiles),measurement,value
"Cc1nc2onc(N)c2c(C)c1Cl [US11414428, Compound 1]",IC50,in the range around 5.5 µM
